Source: ChEMBL document CHEMBL1125015, “Synthesis and antiarrhythmic activity of 5,11-dihydro[1]benzoxepino[3,4-b]pyridines” (1990)

What follows are compounds tested on Canis familiaris (assay: Antiarrhythmic activity in ouabain-induced ventricular arrhythmia in dog at compound concentration of 10 mg/kg). Conditions: not given.
Assay type: functional, Canis lupus familiaris, Heart

Compound | Inhibition
CCN(CC)CCNC1c2cc(OC)ccc2OCc2ncccc21 (single isomer, unassigned; (+)) | 51%
CCN(CC)CCNC1c2cc(OC)ccc2OCc2ncccc21 (single isomer, unassigned; (-)) | 94%
CCN(CC)CCNC1c2cc(OC)ccc2OCc2ncccc21 (racemic) | 76%

What follows are compounds tested on Canis familiaris (assay: No. of cases tested was measured on ouabain induced ventricular arrhythmia at 5 mg/kg, iv in dogs; 0/1). Conditions: not given.
Assay type: functional, Canis lupus familiaris, Cardiac ventricle

Compound | No. positive cases/tested
COc1ccc2c(c1)C(NCCN1[C@@H](C)CC[C@@H]1C)c1cccnc1CO2 (some centres not stated) | 0

These compounds were tested on Canis familiaris (assay: No. of cases tested was measured on ouabain induced ventricular arrhythmia at 5 mg/kg, iv in dogs; 0/2). Conditions: not given.
Assay type: functional, Canis lupus familiaris, Cardiac ventricle

Compound | No. positive cases/tested
CCN(CC)CC(=O)NC1c2cc(OC)ccc2OCc2ncccc21 (configuration not stated) | 0
CCN1CCCC1CNC1c2cc(OC)ccc2OCc2ncccc21 (stereo in doubt; 26) | 0
COc1ccc2c(c1)C(NCCN)c1cccnc1CO2 (configuration not stated) | 0
COc1ccc2c(c1)C(NN1CCN(C)CC1)c1cccnc1CO2 (configuration not stated) | 0
CCN(CC)CCNC1c2cc(OC)c(OC)cc2OCc2ncccc21 (configuration not stated) | 0
COc1ccc2c(c1)C(N1CCN(C)CC1)c1cccnc1CO2 (configuration not stated) | 0
COc1ccc2c(c1)C(NCCN(C)C)c1cccnc1CO2 (configuration not stated) | 0
CCN(CC)CCNC1c2cc(OC(C)C)ccc2OCc2ncccc21 (configuration not stated) | 0
COc1ccc2c(c1)C(NCCCN(C)C)c1cccnc1CO2 (configuration not stated) | 0
COc1ccc2c(c1)C(NCCN1CCOCC1)c1cccnc1CO2 (configuration not stated) | 0
CCN(CC)CCNC1c2cccnc2COc2c(OC)cccc21 (configuration not stated) | 0
COc1ccc2c(c1)C(NCCN(C(C)C)C(C)C)c1cccnc1CO2 (configuration not stated) | 0
CCN(CC)CCNC1c2cc(F)ccc2OCc2ncccc21 (configuration not stated) | 0
CCN(CC)CCNC1c2ccc(OC)cc2OCc2ncccc21 (configuration not stated) | 0

The compounds below were run on Canis familiaris (assay: No. of cases tested was measured on ouabain induced ventricular arrhythmia at 5 mg/kg, iv in dogs; 0/3). Conditions: not given.
Assay type: functional, Canis lupus familiaris, Cardiac ventricle

Compound | No. positive cases/tested
CCNCCNC1c2cc(OC)ccc2OCc2ncccc21 (configuration not stated) | 0
CCN(CC)CCSC1c2cc(OC)ccc2OCc2ncccc21 (configuration not stated) | 0

Species on record: Mus musculus
Experiment: Inhibition of chloroform induced ventricular arrhythmia
Assay type: functional, Cardiac ventricle
Conditions: not given

Compound | ED50
CCN1CCCC1CNC1c2cc(OC)ccc2OCc2ncccc21 (stereo in doubt; 26) | 61 mg/kg

Same assay, conditions: Mus musculus, Cardiac ventricle; read-out: ED50

Compound | ED50
COc1ccc2c(c1)C(NCCN1[C@@H](C)CC[C@@H]1C)c1cccnc1CO2 (some centres not stated) | 100 mg/kg
CCN(CC)CC(=O)NC1c2cc(OC)ccc2OCc2ncccc21 (configuration not stated) | > 100 mg/kg
COc1ccc2c(c1)C(NCCN)c1cccnc1CO2 (configuration not stated) | > 100 mg/kg
COc1ccc2c(c1)C(NN1CCN(C)CC1)c1cccnc1CO2 (configuration not stated) | > 100 mg/kg
CCNCCNC1c2cc(OC)ccc2OCc2ncccc21 (configuration not stated) | > 100 mg/kg
CCN(CC)CCSC1c2cc(OC)ccc2OCc2ncccc21 (configuration not stated) | 31 mg/kg
CCN(CC)CCNC1c2cc(OC)c(OC)cc2OCc2ncccc21 (configuration not stated) | > 100 mg/kg
COc1ccc2c(c1)C(N1CCN(C)CC1)c1cccnc1CO2 (configuration not stated) | 81 mg/kg
COc1ccc2c(c1)C(NCCN(C)C)c1cccnc1CO2 (configuration not stated) | > 100 mg/kg
CCN(CC)CCNC1c2cc(OC(C)C)ccc2OCc2ncccc21 (configuration not stated) | 53 mg/kg
COc1ccc2c(c1)C(NCCCN(C)C)c1cccnc1CO2 (configuration not stated) | > 100 mg/kg
COc1ccc2c(c1)C(NCCN1CCOCC1)c1cccnc1CO2 (configuration not stated) | > 100 mg/kg
CCN(CC)CCNC1c2cccnc2COc2c(OC)cccc21 (configuration not stated) | > 100 mg/kg
COc1ccc2c(c1)C(NCCN(C(C)C)C(C)C)c1cccnc1CO2 (configuration not stated) | > 100 mg/kg
CCN(CC)CCNC1c2cc(F)ccc2OCc2ncccc21 (configuration not stated) | > 100 mg/kg
CCN(CC)CCNC1c2ccc(OC)cc2OCc2ncccc21 (configuration not stated) | > 100 mg/kg

What follows are compounds tested against T1, Muscarinic acetylcholine receptor (Rattus norvegicus) (UniProt P08482+P08483+P08485+P08911+P10980) (assay: Inhibitory effect on muscarinic acetylcholine receptor binding affinity at a concentration of (10e -5)M). Conditions: not given.
Assay type: protein assay

Compound | inhibition
COc1ccc2c(c1)C(NCCN1[C@@H](C)CC[C@@H]1C)c1cccnc1CO2 (some centres not stated) | 6%
CCN(CC)CC(=O)NC1c2cc(OC)ccc2OCc2ncccc21 (configuration not stated) | 1%
COc1ccc2c(c1)C(NCCN)c1cccnc1CO2 (configuration not stated) | 5%
COc1ccc2c(c1)C(NN1CCN(C)CC1)c1cccnc1CO2 (configuration not stated) | 7%
CCNCCNC1c2cc(OC)ccc2OCc2ncccc21 (configuration not stated) | 1%
CCN(CC)CCSC1c2cc(OC)ccc2OCc2ncccc21 (configuration not stated) | 20%
CCN(CC)CCNC1c2cc(OC)c(OC)cc2OCc2ncccc21 (configuration not stated) | 2%
COc1ccc2c(c1)C(N1CCN(C)CC1)c1cccnc1CO2 (configuration not stated) | 11%
COc1ccc2c(c1)C(NCCN(C)C)c1cccnc1CO2 (configuration not stated) | 15%
CCN(CC)CCNC1c2cc(OC(C)C)ccc2OCc2ncccc21 (configuration not stated) | 12%
COc1ccc2c(c1)C(NCCCN(C)C)c1cccnc1CO2 (configuration not stated) | 5%
COc1ccc2c(c1)C(NCCN1CCOCC1)c1cccnc1CO2 (configuration not stated) | 0%
CCN(CC)CCNC1c2cccnc2COc2c(OC)cccc21 (configuration not stated) | 37%
COc1ccc2c(c1)C(NCCN(C(C)C)C(C)C)c1cccnc1CO2 (configuration not stated) | 17%
CCN(CC)CCNC1c2ccc(OC)cc2OCc2ncccc21 (configuration not stated) | 7%

The compounds below were run against T1, Muscarinic acetylcholine receptor (Rattus norvegicus) (assay: Inhibitory effect on muscarinic acetylcholine receptor binding affinity at a concentration of (10e -6)M). Conditions: not given.
Assay type: protein assay

Compound | inhibition
COc1ccc2c(c1)C(NCCN1[C@@H](C)CC[C@@H]1C)c1cccnc1CO2 (some centres not stated) | -2%
CCN(CC)CC(=O)NC1c2cc(OC)ccc2OCc2ncccc21 (configuration not stated) | -3%
COc1ccc2c(c1)C(NCCN)c1cccnc1CO2 (configuration not stated) | -1%
COc1ccc2c(c1)C(NN1CCN(C)CC1)c1cccnc1CO2 (configuration not stated) | 2%
CCNCCNC1c2cc(OC)ccc2OCc2ncccc21 (configuration not stated) | 2%
CCN(CC)CCSC1c2cc(OC)ccc2OCc2ncccc21 (configuration not stated) | 1%
CCN(CC)CCNC1c2cc(OC)c(OC)cc2OCc2ncccc21 (configuration not stated) | 7%
COc1ccc2c(c1)C(N1CCN(C)CC1)c1cccnc1CO2 (configuration not stated) | 0%
COc1ccc2c(c1)C(NCCN(C)C)c1cccnc1CO2 (configuration not stated) | 3%
CCN(CC)CCNC1c2cc(OC(C)C)ccc2OCc2ncccc21 (configuration not stated) | 3%
COc1ccc2c(c1)C(NCCCN(C)C)c1cccnc1CO2 (configuration not stated) | 1%
COc1ccc2c(c1)C(NCCN1CCOCC1)c1cccnc1CO2 (configuration not stated) | 0%
CCN(CC)CCNC1c2cccnc2COc2c(OC)cccc21 (configuration not stated) | 12%
COc1ccc2c(c1)C(NCCN(C(C)C)C(C)C)c1cccnc1CO2 (configuration not stated) | 4%
CCN(CC)CCNC1c2ccc(OC)cc2OCc2ncccc21 (configuration not stated) | 14%
